Read-outs that look alike come from different tables or passages of the source.
Columns and labels:
Type in all cases: in vivo
[1] = tested on: umbrella sedge (Cyperus difformis); assay: Test B flooded paddy test; details: Cyperus difformis, 360 h
In short: (§1)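 Visual scores run from 0 (no effect) to 100 (complete control), assigned by comparison with controls 13 to 15 days after treatment. Test compounds went straight into water standing 3 cm above the soil, around plants at the 2-leaf stage kept in a greenhouse.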

rice (Oryza sativa) = assay: Test B flooded paddy test; details: Oryza sativa
In short: as §1

[2] = tested on: ducksalad (Heteranthera limosa); assay: Test B flooded paddy test; details: Heteranthera limosa, 360 h
In short: as §1

[3] = tested on: barnyardgrass (Echinochloa crus-galli); assay: Test B flooded paddy test; details: Echinochloa crus-galli, 360 h
In short: as §1

corn (Zea mays) = assay: Test A pre-/postemergence plant response; details: Zea mays, 240 h; for Corn plant response rating (crop injury, 0 = no effect, 100 = complete kill) at 500 g/ha: 500 g ai/ha
In short: (§2)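 Both pre- and postemergence treatments are applied simultaneously, using chemicals formulated in a non-phytotoxic solvent mixture with surfactant. Postemergence plants are 2–10 cm high with one to two leaves. After approximately ten days in a greenhouse, injury is scored visually from 0 (none) to 100 (complete control) relative to untreated plants.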

[4] = tested on: wheat (Triticum aestivum); assay: Test A pre-/postemergence plant response; details: Triticum aestivum, 240 h; for plant injury at 125 g/ha: 125 g ai/ha; for plant injury at 500 g/ha: 500 g ai/ha
In short: as §2

[5] = tested on: morningglory (Ipomoea spp.); assay: Test A pre-/postemergence plant response; details: Ipomoea, 240 h; for pest or weed control at 125 g/ha: 125 g ai/ha; for pest or weed control at 500 g/ha: 500 g ai/ha
In short: as §2

[6] = tested on: large crabgrass (Digitaria sanguinalis); assay: Test A pre-/postemergence plant response; details: Digitaria sanguinalis, 240 h; for pest or weed control at 125 g/ha: 125 g ai/ha; for pest or weed control at 500 g/ha: 500 g ai/ha
In short: as §2

[7] = tested on: giant foxtail (Setaria faberii); assay: Test A pre-/postemergence plant response; details: Setaria faberi, 240 h; for pest or weed control at 125 g/ha: 125 g ai/ha; for pest or weed control at 500 g/ha: 500 g ai/ha
In short: as §2

[8] = tested on: pigweed (Amaranthus retroflexus); assay: Test A pre-/postemergence plant response; details: Amaranthus retroflexus, 240 h; for pest or weed control at 125 g/ha: 125 g ai/ha; for pest or weed control at 500 g/ha: 500 g ai/ha
In short: as §2

[9] = tested on: velvetleaf (Abutilon theophrasti); assay: Test A pre-/postemergence plant response; details: Abutilon theophrasti, 240 h; for pest or weed control at 125 g/ha: 125 g ai/ha; for pest or weed control at 500 g/ha: 500 g ai/ha
In short: as §2

[10] = tested on: barnyardgrass (Echinochloa crus-galli); assay: Test A pre-/postemergence plant response; details: Echinochloa crus-galli, 240 h; for pest or weed control at 125 g/ha: 125 g ai/ha; for pest or weed control at 500 g/ha: 500 g ai/ha
In short: as §2

O=C1CCCC(O)=C1C(=O)c1cnc(-c2ccccc2)n(-c2ccccc2)c1=O [Compound 2, 5-[(2-hydroxy-6-oxo-1-cyclohexen-1-yl)carbonyl]-2,3-diphenyl-4(3H)-pyrimidinone]
pest or weed control at 250 g/ha ([1]; 250 g ai/ha, flooded paddy test, visual rating on 0 to 100 scale (0 no effect, 100 complete control) after 13 to 15 days, read-out: Plant response rating, Flood, Sedge, Umbrella): 75% | pest or weed control at 31 g/ha ([1]; Flood (flooded paddy test), 31 g ai/ha, scale of 0 to 100 where 0 is no effect and 100 is complete control, 13 to 15 days, read-out: Plant response rating, Sedge, Umbrella): 0% | pest or weed control at 62 g/ha ([1]; Flood (flooded paddy test), 62 g ai/ha, scale 0 to 100, 0 is no effect, 100 is complete control, 13 to 15 days, read-out: Plant response rating, Sedge, Umbrella): 0% | pest or weed control at 125 g/ha ([1]; Flood (flooded paddy test), 125 g ai/ha, scale 0 to 100, 0 is no effect, 100 is complete control, 13 to 15 days, read-out: Plant response rating, Sedge, Umbrella): 45% | plant injury at 250 g/ha (rice (Oryza sativa); 250 g ai/ha, flooded paddy test, visual rating on 0 to 100 scale (0 no effect, 100 complete control) after 13 to 15 days, read-out: Plant response rating, Flood, Rice): 8% | plant injury at 31 g/ha (rice (Oryza sativa); Flood (flooded paddy test), 31 g ai/ha, scale of 0 to 100 where 0 is no effect and 100 is complete control, 13 to 15 days, read-out: Plant response rating, Rice): 0% | plant injury at 62 g/ha (rice (Oryza sativa); Flood (flooded paddy test), 62 g ai/ha, scale 0 to 100, 0 is no effect, 100 is complete control, 13 to 15 days, read-out: Plant response rating, Rice): 0% | plant injury at 125 g/ha (rice (Oryza sativa); Flood (flooded paddy test), 125 g ai/ha, scale 0 to 100, 0 is no effect, 100 is complete control, 13 to 15 days, read-out: Plant response rating, Rice): 0% | pest or weed control at 250 g/ha ([2]; 250 g ai/ha, flooded paddy test, visual rating on 0 to 100 scale (0 no effect, 100 complete control) after 13 to 15 days, read-out: Plant response rating, Flood, Ducksalad): 78% | pest or weed control at 31 g/ha ([2]; Flood (flooded paddy test), 31 g ai/ha, scale of 0 to 100 where 0 is no effect and 100 is complete control, 13 to 15 days, read-out: Plant response rating, Ducksalad): 15% | pest or weed control at 62 g/ha ([2]; Flood (flooded paddy test), 62 g ai/ha, scale 0 to 100, 0 is no effect, 100 is complete control, 13 to 15 days, read-out: Plant response rating, Ducksalad): 40% | pest or weed control at 125 g/ha ([2]; Flood (flooded paddy test), 125 g ai/ha, scale 0 to 100, 0 is no effect, 100 is complete control, 13 to 15 days, read-out: Plant response rating, Ducksalad): 58% | pest or weed control at 250 g/ha ([3]; 250 g ai/ha, flooded paddy test, visual rating on 0 to 100 scale (0 no effect, 100 complete control) after 13 to 15 days, read-out: Plant response rating, Flood, Barnyardgrass): 0% | pest or weed control at 31 g/ha ([3]; Flood (flooded paddy test), 31 g ai/ha, scale of 0 to 100 where 0 is no effect and 100 is complete control, 13 to 15 days, read-out: Plant response rating, Barnyardgrass): 0% | pest or weed control at 62 g/ha ([3]; Flood (flooded paddy test), 62 g ai/ha, scale 0 to 100, 0 is no effect, 100 is complete control, 13 to 15 days, read-out: Plant response rating, Barnyardgrass): 0% | pest or weed control at 125 g/ha ([3]; Flood (flooded paddy test), 125 g ai/ha, scale 0 to 100, 0 is no effect, 100 is complete control, 13 to 15 days, read-out: Plant response rating, Barnyardgrass): 0% | plant injury at 125 g/ha (corn (Zea mays); post-emergence, Postemergence, 125 g ai/ha, visual injury, 0 to 100 scale (0 no effect, 100 complete control), approx. ten days, read-out: Corn plant response rating): 30% | Corn plant response rating (crop injury, 0 = no effect, 100 = complete kill) at 500 g/ha (corn (Zea mays); post-emergence, Postemergence, 0 to 100 scale, 0 = no effect, 100 = complete control, approx. ten days): 90% | Corn plant response rating (crop injury, 0 = no effect, 100 = complete kill) at 125 g/ha (corn (Zea mays); pre-emergence, Preemergence, 125 g ai/ha, 0 to 100 scale, 0 = no effect, 100 = complete control): 0% | Corn plant response rating (crop injury, 0 = no effect, 100 = complete kill) at 500 g/ha (corn (Zea mays); pre-emergence, Preemergence, visual injury, 0 to 100 scale (0 no effect, 100 complete control), approx. ten days): 0% | plant injury at 125 g/ha ([4]; post-emergence, Postemergence, visual injury, 0 to 100 scale (0 no effect, 100 complete control), approx. ten days, read-out: Wheat plant response rating): 0% | plant injury at 500 g/ha ([4]; post-emergence, Postemergence, 0 to 100 scale, 0 = no effect, 100 = complete control, approx. ten days, read-out: Plant response rating, Wheat): 20% | plant injury at 125 g/ha ([4]; pre-emergence, Preemergence, 0 to 100 scale, 0 = no effect, 100 = complete control, read-out: Plant response rating, Wheat): 0% | plant injury at 500 g/ha ([4]; pre-emergence, Preemergence, visual injury, 0 to 100 scale (0 no effect, 100 complete control), approx. ten days, read-out: Plant response rating, Wheat): 0% | pest or weed control at 125 g/ha ([5]; post-emergence, Postemergence, visual injury, 0 to 100 scale (0 no effect, 100 complete control), approx. ten days, read-out: Morningglory plant response rating): 90% | pest or weed control at 500 g/ha ([5]; post-emergence, Postemergence, 0 to 100 scale, 0 = no effect, 100 = complete control, approx. ten days, read-out: Plant response rating, Morningglory): 100% | pest or weed control at 125 g/ha ([5]; pre-emergence, Preemergence, 0 to 100 scale, 0 = no effect, 100 = complete control, read-out: Plant response rating, Morningglory): 60% | pest or weed control at 500 g/ha ([5]; pre-emergence, Preemergence, visual injury, 0 to 100 scale (0 no effect, 100 complete control), approx. ten days, read-out: Plant response rating, Morningglory): 90% | pest or weed control at 125 g/ha ([6]; post-emergence, Postemergence, visual injury, 0 to 100 scale (0 no effect, 100 complete control), approx. ten days, read-out: Crabgrass, Large plant response rating): 90% | pest or weed control at 500 g/ha ([6]; post-emergence, Postemergence, 0 to 100 scale, 0 = no effect, 100 = complete control, approx. ten days, read-out: Plant response rating, Crabgrass, Large): 100% | pest or weed control at 125 g/ha ([6]; pre-emergence, Preemergence, 0 to 100 scale, 0 = no effect, 100 = complete control, read-out: Plant response rating, Crabgrass, Large): 80% | pest or weed control at 500 g/ha ([6]; pre-emergence, Preemergence, visual injury, 0 to 100 scale (0 no effect, 100 complete control), approx. ten days, read-out: Plant response rating, Crabgrass, Large): 100% | pest or weed control at 125 g/ha ([7]; post-emergence, Postemergence, visual injury, 0 to 100 scale (0 no effect, 100 complete control), approx. ten days, read-out: Foxtail, Giant plant response rating): 90% | pest or weed control at 500 g/ha ([7]; post-emergence, Postemergence, 0 to 100 scale, 0 = no effect, 100 = complete control, approx. ten days, read-out: Plant response rating, Foxtail, Giant): 100% | pest or weed control at 125 g/ha ([7]; pre-emergence, Preemergence, 0 to 100 scale, 0 = no effect, 100 = complete control, read-out: Plant response rating, Foxtail, Giant): 50% | pest or weed control at 500 g/ha ([7]; pre-emergence, Preemergence, visual injury, 0 to 100 scale (0 no effect, 100 complete control), approx. ten days, read-out: Plant response rating, Foxtail, Giant): 90% | pest or weed control at 125 g/ha ([8]; post-emergence, Postemergence, visual injury, 0 to 100 scale (0 no effect, 100 complete control), approx. ten days, read-out: Pigweed plant response rating): 100% | pest or weed control at 500 g/ha ([8]; post-emergence, Postemergence, 0 to 100 scale, 0 = no effect, 100 = complete control, approx. ten days, read-out: Plant response rating, Pigweed): 100% | pest or weed control at 125 g/ha ([8]; pre-emergence, Preemergence, 0 to 100 scale, 0 = no effect, 100 = complete control, read-out: Plant response rating, Pigweed): 100% | pest or weed control at 500 g/ha ([8]; pre-emergence, Preemergence, visual injury, 0 to 100 scale (0 no effect, 100 complete control), approx. ten days, read-out: Plant response rating, Pigweed): 100% | pest or weed control at 125 g/ha ([9]; post-emergence, Postemergence, visual injury, 0 to 100 scale (0 no effect, 100 complete control), approx. ten days, read-out: Velvetleaf plant response rating): 100% | pest or weed control at 500 g/ha ([9]; post-emergence, Postemergence, 0 to 100 scale, 0 = no effect, 100 = complete control, approx. ten days, read-out: Plant response rating, Velvetleaf): 100% | pest or weed control at 125 g/ha ([9]; pre-emergence, Preemergence, 0 to 100 scale, 0 = no effect, 100 = complete control, read-out: Plant response rating, Velvetleaf): 60% | pest or weed control at 500 g/ha ([9]; pre-emergence, Preemergence, visual injury, 0 to 100 scale (0 no effect, 100 complete control), approx. ten days, read-out: Plant response rating, Velvetleaf): 100% | pest or weed control at 125 g/ha ([10]; post-emergence, Postemergence, visual injury, 0 to 100 scale (0 no effect, 100 complete control), approx. ten days, read-out: Barnyardgrass plant response rating): 100% | pest or weed control at 500 g/ha ([10]; post-emergence, Postemergence, 0 to 100 scale, 0 = no effect, 100 = complete control, approx. ten days, read-out: Plant response rating, Barnyardgrass): 100% | pest or weed control at 125 g/ha ([10]; pre-emergence, Preemergence, 0 to 100 scale, 0 = no effect, 100 = complete control, read-out: Plant response rating, Barnyardgrass): 10% | pest or weed control at 500 g/ha ([10]; pre-emergence, Preemergence, visual injury, 0 to 100 scale (0 no effect, 100 complete control), approx. ten days, read-out: Plant response rating, Barnyardgrass): 70%

From patent US8952024B2, “Herbicidal pyrimidone derivatives” (E I du Pont de Nemours and Company, priority 2009, dated 2015)
